Source: patent US20060270603A1, “Amidated parathyroid hormone fragments and uses thereof” (Unigene Laboratories Inc., priority 2004, published 2006)
No end group written: not given here.

Key:
ovariectomized rats = experiment: Efficacy testing of PTH analogs in ovariectomized rats; assay type: in vivo, Sprague Dawley rats; details: for osteocalcin (bone formation marker): plasma; for proximal tibia trabecular bone mineral density (BMD) by pQCT: Week 20
Experimental: To compare their effects in bone, amidated fragments of human parathyroid hormone (PTH) were evaluated in the ovariectomized rat model. Aged female Sprague Dawley rats were subject to bilateral ovariectomy or sham surgery. The animals were held untreated for a period of 8 weeks to allow the development of osteopenia. At that point, the ovariectomized animals were segregated into groups, and each group received daily subcutaneous injection of either vehicle or one of the following PTH fragments: PTH[1-30]NH2, PTH[1-31]NH2, PTH[1-32]NH2, PTH[1-33]NH2, and PTH[1-34]NH2 at a dose of 9.7 nmol/Kg. Treatment continued for a period of twelve weeks. Primary measures of analyses were 1) bone mineral density (BMD) of the spine (L3-L6) as determined by Dual Energy X-Ray Absorptiometry (DXA), 2) trabecular BMD of the proximal tibia as determined by peripheral Quantitative Computed Tomography (pQCT)and 3) evaluation of cortical bone in the distal tibia by PQCT. Secondary measures included urinary deoxypyridinoline (bone resorption marker), plasma osteocalcin (bone formation marker), histomorphometry of trabecular bone from the fourth lumbar vertebra (L4) and cortical bone from the distal tibia, microcomputed tomography (μCT), and bone strength tests of the spine and femur. Bone strength analysis was done on the femoral midshaft and a lumbar vertebral body.
In other experiments involving an ovariectomized rat model for osteoporosis, good efficacy is shown for the pharmaceutical agents of the invention. For example, the groups used in the study were: Sham, OVX (ovariectomized rats), OVX+PTH(1-30)NH2, OVX+PTH(1-31)NH2, OVX +PTH(1-32)NH2, OVX +PTH(1-33)NH2 and OVX +PTH(1-34)NH2.

ovariectomized rat model = details: cited from earlier work
adenylyl cyclase (AC) = details: cited from earlier work
[1] = 9.7 nmol/Kg daily subcutaneous injection, twelve weeks

Substance | osteocalcin (bone formation marker) (ovariectomized rats) | cortical bone mass, bone formation on periosteal and endosteal bone surfaces (anabolic effect) (ovariectomized rats; rat, in vivo) | proximal tibia trabecular bone mineral density (BMD) by pQCT (ovariectomized rats) | bone formation rate/bone surface (BFR/BS) on the periosteal surface (ovariectomized rats; compared to OVX) | also measured
PTH[1-30]NH2: amidated fragment of human parathyroid hormone (PTH), 30 amino acids (SVSEIQLMHNLGKHLNSMERVEWLRKKLQD-NH2; UniProt P01270 32-61, looked up, fragment) | significant increase in osteocalcin was observed for all PTH fragment treated groups except for PTH(1-30)NH2 | anabolic effect is weak |  |  | increase in lumbar BMD (L3-L6) by DXA relative to the vehicle-treated ovariectomized animals (ovariectomized rats; [1]): 13%; increase in maximal load, compression testing of a lumbar vertebral body, relative to vehicle-treated ovariectomized animals (ovariectomized rats; [1]): 53%; effect on bone mass and strength (conclusion) (ovariectomized rats; common dose): gain in bone mass that was of a smaller magnitude than the other fragments; bone formation rate/bone surface, trabecular bone (ovariectomized rats; histomorphometry): anabolic effects of all hPTH amide fragments except hPTH(1-30); trabecular area (trabecular bone mass) (ovariectomized rats; in contrast to OVX): increased trabecular bone mass in contrast to OVX except for the hPTH amide fragment (1-30); anabolic effectiveness overall (percent trabecular area, bone volume/total volume, trabecular thickness and number) (ovariectomized rats; micro-CT and histomorphometry): less anabolically effective than the other fragments; cortical analysis of the midshaft of the femur by pQCT (ovariectomized rats; rat, in vivo): all fragments to be effective except hPTH(1-30)NH2; indices of cortical bone strength derived from pQCT (ovariectomized rats; rat, in vivo): no effect
PTH[1-32]NH2: C-terminal amidated human parathyroid hormone analog; hPTH-(1-32) sequence is SEQ ID NO:20 (SVSEIQLMHNLGKHLNSMERVEWLRKKLQDVH-NH2; listed as Homo sapiens) |  | increased cortical bone mass | continue to increase |  | percent porosity of the intracortex (ovariectomized rats; compared to OVX): significantly increased when compared to OVX except hPTH(1-32) amide
PTH[1-33]NH2: C-terminal amidated human parathyroid hormone analog; hPTH-(1-33) sequence is SEQ ID NO:21 (SVSEIQLMHNLGKHLNSMERVEWLRKKLQDVHN-NH2; listed as Homo sapiens) |  | increased cortical bone mass | did not continue to increase | increased BFR/BS | 
PTH[1-34]NH2: amidated fragment of human parathyroid hormone (PTH), 34 amino acids; hPTH-(1-34) sequence is SEQ ID NO:1 | significantly more increase than PTH amide fragments (1-31) and (1-32) | increased cortical bone mass | continue to increase | increased BFR/BS | 
Ser Val Ser Glu Ile Gln Leu Met His Asn Leu Gly Lys His Leu Asn Ser Met Glu Arg Val Glu Trp Leu Arg Lys Lys Leu Gln Asp Val-NH2 [PTH[1-31]NH2] |  | increased cortical bone mass | continue to increase | increased BFR/BS | restoration of bone loss (ovariectomized rat model): fully active; total area (ovariectomized rats; cortical bone): did not increase significantly except hPTH amide (1-31); AC-stimulating activity (adenylyl cyclase (AC)): has only AC-stimulating activity
